Where two headings read alike, the source gives them in different places.
Columns and labels:
[1] = system: HEK293T cells; experiment: Cellular imaging of transfected Mango tagged RNAs; type: cell-based; conditions: against 5S-F30-Mango-IV
Experimental: HEK293T cells were grown in Dulbecco Modified Eagle's Medium containing 10% Fetal Bovine Serum, 2 mM D-Glucose, 2 mM L-Glutamine, 1 mM Sodium Pyruvate and 100 U/ml Penicillin/Streptomycin (Thermo Fisher) and maintained at 37° C. with 5% CO2 in a humidified incubator. Cells used for imaging were cultured in Ibidi glass bottomed 8-well chamber slides (Ibidi GmbH).
RNA was transfected directly into 8-well chamber slides using the Lipofectamine-based CRISPRMAX reagent following the manufacturers guidelines (Invitrogen). Initially 125 nM RNA containing 10 mM Sodium Phosphate buffer (pH 7.2), 100 mM KCl and 1 mM MgCl2 was incubated at room temperature followed by a 1:1 dilution in OptiMEM prior to transfection. The RNA transfected was incubated at 37° C. for 1 hour in complete growth medium.
Cells were fixed in PBS containing 4% paraformaldehyde for 10 min on ice (Thermo Fisher) followed by permeabilization in 0.2% Triton X-100 for 10 min at room temperature. Cells were first blocked (2% BSA in PBS) for 30 min followed by primary antibody (1:50-1:500 dilutions) incubation for 120 min in blocking solution.
Primary antibodies used here were: Anti-Ribosomal Protein S6 (MAB5436, R&D Systems), Anti-ATP5B (ab14730, Abcam), Anti-GW182 (ab7052, Abcam), Anti-EEA-1 (ab70521, Abcam), Anti-LSm3 (NBP2-14206, Novus Biologicals), Anti-TIAR (sc-398372, Santa Cruz). Secondary antibodies used were Donkey Anti-mouse and Donkey Anti-Rabbit Alexa Fluor 680 (Molecular Probes). Primary antibodies were washed three times for 20 min each in blocking solution followed by incubation with secondary antibody at 1:500 dilution for 60 min, which was subsequently washed as above.
To visualize the nuclear boundary in live cells, a plasmid expressing a fluorescently tagged histone protein (EBFP2-H2B-6, Addgene plasmid 55243) was transfected using FuGene 6 (Promega) 24 h prior to RNA transfection. […] Following incubation of the RNA transfection, the cells were washed once with PBS and replaced with live-cell imaging media (Fluorobrite DMEM supplemented with 20 mM HEPES, Invitrogen). Live and fixed cell images were taken using a Zeiss Elyra wide-field microscope by exciting at 405 nm (Blue), 488 nm (Green) and 642 nm (Far-Red) and detecting at 420-480 nm, 495-550 nm and >650 nm, respectively. Live cells were maintained at 37° C. with 5% CO2 in a stage top incubator (Tokai Hit). Images were processed using FIJI and spot detection analysis was performed on each maximum projection by the spot detector plugin in the ICY image analysis software, which detects significant foci with a pixel area 3×3 pixels.

[2] = In vitro fluorescence of Mango tagged RNA constructs; type: biochemical; conditions: 40 nM TO1-Biotin, 200 nM RNA
From the text: FIG. 14|RNA scaffold diagrams. Diagrams of the 5S-Mango and U6-Mango constructs synthesized (sequences in Table 2) and their fluorescence emission as a function of wavelength after excitation at 505 nm, compared to unmodified Mango I-IV.
DNA encoding the F30 folding scaffold was modified to incorporate the Mango RNA sequences and ordered from (Intergrated DNA Technologies). The DNA was amplified by PCR to incorporate 5′ SalI and 3′ Xbal restriction sites. PCR products were digested using Fast Digest enzymes (Thermo Fisher) and ligated into SalI/Xbal linearized and Shrimp Alkaline Phosphotase (NEB) treated pAV5S-F30-2xdBroccoli (Addgene plasmid 66845, a gift from Dr S. Jaffrey). DNA encoding the full 5S-F30-Mango sequence was PCR amplified and a 5′ T7 RNA polymerase promoter introduced. DNA was transcribed in vitro with T7 RNA polymerase (NEB) at 37° C. for 16 h in 40 mM Tris-HCl, 30 mM MgCl2, 2 mM spermidine, 1 mM dithiothreitol, 5 mM rNTPs, 1 U/μl E. coli inorganic pyrophosphotase, 4 U/μl T7 RNA polymerase (pH 7.9). RNA was purified from an 8 M urea denaturing polyacrylamide […] gel followed by elution in RNA elution buffer (40 mM Tris-HCl pH 8.0, 0.5 M sodium acetate, 0.1 mM EDTA) and ethanol precipitation.

[3] = Fluorescence titration, binding affinity for TO1-Biotin
From the text: (§1) FIG. 2|RNA Mango I, II, III and IV core sequences and their properties. (a) Color coded alignment of RNA Mango I, II, III and IV. G residues in yellow are protected from DMS cleavage (data from panel d) when folded in the presence of fluorophore. Quadruplex stacks and their associated propeller sequences are numbered 1 through 4. The GAAA isolation motif of Mango I, together with two adenines essential for binding, are shown in green and red respectively. Purple shading represents a flanking stem region common for all four Mango aptamers. Schematic: A tertiary structure schematic of Mango I, showing tier 1, 2 and 3 of its quadruplex structure (T1, T2 and T3) and color-coded as in (a). […] Bottom: Top view of the Mango I core (PBD ID: 5V3F), showing the T3 tier of the quadruplex and relevant propeller residues, color coding matches the schematic and panel a. […] KD values are shown next to each titration. (c) Same as for panel b but using 20 nM TO3-Biotin. Data for panels b and c have been normalized such that Mango I has a maximum fluorescence of 1. Error bars are standard deviation of three replicates. (d) DMS chemical protection patterns for the four Mango aptamers. 3′ end-labelled RNA (terminal ^32pCp shown as a black asterisk) was subjected to DMS chemical modification followed by reduction by NaBH4 and aniline cleavage as described in the methods. […] Legend: T1—denatured T1 ladder; OH—partial alkaline hydrolysis ladder; (−) DMS—denatured reaction with ddH2O added in place of DMS; 80° C.
(§2) Fluorescence data was gathered using a Varian Cary Eclipse Spectrophotometer unless otherwise stated. […] Fluorescence was measured at the maximum excitation and emission wavelengths of each complex (FIG. 13).
Where F([RNA]) is the fluorescence as a function of RNA concentration [RNA], Fmax is the maximal fluorescence of the bound complex and Funbound the fluorescence of the unbound fluorophore. When the fluorescence of Funbound was undetectable, it was set to zero.
Fluorescence readings were recorded using a Varian Cary Eclipse Spectrophotometer set to measure at the maximum excitation and emission wavelengths of the Mango II aptamer dye complex. Fluorescence titrations were performed in Mango selection buffer (WB: 140 mM KCl, 1 mM MgCl2, 10 mM NaH2PO4 pH 7.2, 0.05% Tween-20).

[4] = Salt dependence of Mango/TO1-Biotin fluorescence: K+ titration; type: binding; conditions: for Kd / Hill Coefficients K^+: 25 nM RNA, 50 nM TO1-Biotin, 10 mM Tris pH 7.2; for Hill Coefficients K^+: * estimated from initial rise of fluorescence
Experimental: (§3) FIG. 10|Salt dependence of new Mango variants. Dependence of fluorescence of each Mango for (a) K^+, (b) Na^+ in place of K^+, and (c) Mg^2+ ions in a buffer containing 140 mM K^+. […] 10 mM Tris buffer (pH 7.2) was used in place of phosphate of the WB buffer to avoid monovalent counter ions. Color-coding is as follows: Black—Mango I, Blue—Mango II, Green—Mango III, Orange—Mango IV. Hill coefficients are fitted to dark points. Points in lighter shade have been excluded from the fit. Error bars are standard deviations of three replicates.

[5] = Salt dependence of Mango/TO1-Biotin fluorescence: Na+ in place of K+; type: binding
Experimental: as §3

[6] = Salt dependence of Mango/TO1-Biotin fluorescence: Mg2+ titration; conditions: in the presence of potassium; Mg2+ 256 mM
Experimental: as §3

[7] = Brightness and photophysics of Mango fluorophore complexes; type: physicochemical
From the text: as §1
FIG. 13|Photophysics: excitation/emission. (a) Excitation (dark curve) and emission (light curve) spectra of each Mango. All Mangos have Δex max=510 nm and Δem max=535 nm. Color-coding is as follows: Black—Mango I, Blue—Mango II, Green—Mango III, Red—Mango IV.
as §2

[8] = system: Circular template; experiment: Rolling circle transcription of Mango III; type: biochemical; conditions: room temperature, excess TO1-Biotin
From the text: FIG. 33|Rolling circle transcription of Mango III.
FIG. 34|Rolling circle transcription of Mango III. Circular construct represented here was used in FIG. 33. Purple: T7 binding site, red and orange template hybridization arms (ligation site between them). Blue Mango sequence.
This illustrates that in select embodiments Mango aptamers may be used for detection of nucleic acids in a two-step fluorescence-based detection system using the Mango aptamers as the reporter. […] Nucleic acid concentration can be discerned by a simple fluorescence reading. In these assays, the Mango III fluorescence emerged rapidly upon the addition of the RNA polymerase (FIG. 32).

[9] = Brightness response to a fluorophore series; type: biochemical; conditions: 500 nM RNA, 10 nM fluorophore
Experimental: FIG. 53|Brightness response of MI, MII, MIII mutants and MIV to a fluorophore series. Single fluorescence point reads done in triplicate. 500 nM RNa was incubated with 10 nM fluorophore at room temperature for ˜1 h to allow folding of the RNA aptamers in 1×WB (140 mM KCl, 1 mM MgCl2, 10 mM NaH2PO4, pH 7.2.

[10] = Formaldehyde resistance assay; type: physicochemical; conditions: in vitro, TO1-Biotin
Experimental: FIG. 15|Effect of formaldehyde on Mango fluorescence. […] In (b) RNA is incubated with the corresponding amounts of formaldehyde first for one hour, then TO1-Biotin is added. Data for each panel is normalized to RFU at the 0% formaldehyde, 0 min point.
RNA Mango aptamers were incubated with TO1-Biotin in WB buffer for at least one hour until equilibrium fluorescence was reached. […] Fluorescence was measured as a kinetic run at a rate of 2 readings per minute using a Varian Cary Eclipse Fluorescence Spectrophotometer, ex/em=510±2.5/535±5 nm.

[11] = Photobleaching under constant illumination; conditions: identical illumination conditions, on average
Experimental: FIG. 16|Formation of 5S-Mango foci and their dynamics in live cells. (a) 5S-Mango IV imaged post cell fixation at 5, 15, 30 and 60 mins after transfection using Lipofectamine based CRISPRMAX transfection reagent. […] (c) Root mean-squared displacement (RMSD) of three observed foci with different diffusive behaviors, fast (Green), slow (Blue) and static (Red) shown in Video 3. Scale bars are 10 μm and arrows indicate foci of interest. (d) Normalized photobleaching traces of 5S-F30-Mango I and IV compared to 5S-F30-dBroccoli under constant illumination with an exposure time of 200 ms. Photobleaching half-lives are stated in the table adjacent and were calculated from an exponential fit of each curve.

[12] = read-out: Kd for TO1-Biotin, original RNA Mango, earlier work, cited from earlier work
[13] = original RNA Mango, earlier work; read-out: Kd for TO3-Biotin; cited from earlier work
[14] = Na+ in place of K+, 25 nM RNA, 50 nM TO1-Biotin

## U6-Mango-IV: U6 snRNA with Mango-IV in an internal stem loop; SEQ ID NO: 6896 [Mango U6-Mango-IV]
[1]
  increase of the fraction of nuclear foci: ~9 fold
[2]
  fluorescence intensity in vitro: comparable fluorescence intensity to Mango IV alone

## Mango-III: minimal construct engineered from isolate R5-NMM-20; two-tiered G-quadruplex aptamer
[3]
  TO1-Biotin binding affinity (in words): slightly weaker affinities than Mango-I
[4]
  Kd: 0.4 ± 0.1 mM
  Hill Coefficients K^+: 1.0 ± 0.8*
[4]; against the other Mangos
  higher affinity of the fluorescence response to potassium and sodium: two order of magnitude
[5]; [14]
  Hill Coefficients Na^+: 0.5 ± 0.5
  Kd: 0.8 ± 0.3 mM
[6]
  effect of high levels of Mg^2+ on fluorescence: only modestly inhibited
[7]; TO1-Biotin bound complex
  brighter than enhanced GFP (EGFP): 1.3 times
[7]
  brightness of the TO1-Biotin bound complex: 43,000 M^−1cm^−1
[7]; TO1-Biotin, FIG. 2b
  brighter than Mango-I: 4 fold
[8]
  sensitivity: 5 nM
[9]
  binding of TO1 fluorophore derivatives: bound to a broad set of TO1 fluorophore derivatives

## Mango-I: original RNA Mango aptamer; core SEQ ID NO: 1 GAAGGGACGGUGCGGAGAGGAGA (chemistry not given here) [reference compound]
[4]
  Kd: 48 ± 5 mM
  Hill Coefficients K^+: 1.2 ± 0.1
[5]
  fluorescence in the presence of sodium ions: did not fluoresce appreciably
[6]
  effect of high levels of Mg^2+ on fluorescence: strongly inhibited
[7]
  quantum yield of the TO1-Biotin complex: 0.14
  brightness of the TO1-Biotin bound complex: 11,000 M^−1cm^−1
[10]
  resistance to formaldehyde: substantially resistant to formaldehyde
[11]
  bleaching half-lives longer than RNA Spinach: 10 times
[12]
  Kd: ~3 nM
[12]; listed as RNA Mango
  Kd: 3.1 nM
[13]
  Kd: 8 nM
